# US7468369B2, “Sulfonyl pyrrolidines, method for producing the same and their use as drugs” (Sanofi-Aventis, priority 2005, dated 2008)
# System: human ABCA1 promoter
# Experiment: ABCA1 promoter test (luciferase reporter in stably transfected THP1 cell line)
# Type: cell-based
# Conditions: Homo sapiens, THP-1; ABCA1 reporter cell line (THP1, PMA-differentiated), 24 h incubation, luciferase chemiluminescence; read-out: E50 ABCA1
# Experimental: The potency of substances which activate expression of the human ABCA1 gene via its promoter is analyzed by using a stably transfected THP1 cell line (human monocyte cell line) which is referred to herein as ABCA1 reporter cell line. It contains a fragment, 3.2 kb in size and stably integrated into the genome, of the human ABCA1 promoter in front of a luciferase reporter element. Expression of the luciferase reporter gene is only low without addition of an ABCA1 expression activator. The substances stimulating ABCA1 expression bring about, via activation of the ABCA1 promoter, an enhanced expression of the luciferase reporter gene. The luciferase which is formed can be detected via an appropriate substrate by means of chemiluminescence.
# Construction of the Cell Line
# The ABCA1 reporter line was prepared as follows: firstly the neomycin resistance gene (Acc. No.: AJ000156) was introduced into the luciferase reporter plasmid pLG3basic (#1751, Promega) 3′ below the luciferase reporter element. Subsequently, an ABCA1 promoter fragment, 3.2 kb in size and amplified from human genomic DNA (#6550-1, Clontech) by the polymerase chain reaction, was cloned in 5′ above the luciferase reporter element. The reporter plasmid produced in this way was called pGL3BN-ABCA1P. Luciferase expression in this plasmid is controlled by the ABCA1 promoter. Cloning and sequencing of the construct took place in analogy to the description in Sambrook J et al. (Molecular cloning, Cold Spring Harbor Laboratory Press, 1989). For stable transfection into THP1 cells, firstly pGL3BN-ABCA1P was linearized with a restriction endonuclease and then introduced into the THP1 cells as stated in Ausubel, F. M. et al. (Current protocols in molecular biology, Vol. 1-3, John Wiley & Sons, Inc., 1995).
# The activity of ABCA1 expression activators is determined in a 3-day test which is described below:
# The ABCA1 reporter cell line comprises suspension cells. These are cultured until the concentration is 0.5×10^6 cells/ml in RPMI medium (#52400-025, Invitrogen) which is mixed with the following additions: 10% FCS (fetal calf serum; #16000-044, invitrogen), 0.5 mg/ml Geneticin (#10131-019, invitrogen) and 1% penicillin-streptomycin solution (#15140-122, invitrogen). The culturing takes place in standard cell culture flasks (#353112, Becton Dickinson) in a cell culture incubator at 37° C. in the presence of 5% CO2.
# For the ABCA1 promoter test, the suspension cells are centrifuged at 1200 rpm in 50 ml tubes. The supernatant is aspirated off, and the pellet is resuspended in 15 ml of RPMI medium and counted in a cell counter. After dilution to 175 000 cells/ml, 0.1 μg/ml PMA (phorbol 12-myristate 13-acetate, #8139-5MG, Sigma) is added in order to induce differentiation of the monocytic THP1 suspension cells into adherent macrophages. 35 000 cells in each well are seeded in a 96-well microtiter plate with clear plastic base (#3610, Corning Costar). The plates are incubated in a cell culture incubator at 37° C. and 5% CO2 for 24 h.
# The ABCA1 expression activators to be tested are dissolved in a concentration of 10 mM in DMSO. This stock solution is diluted in the RPMI medium (mixed with 0.1 μg/ml PMA) described above. Test substances are tested in 11 different concentrations in the range from […] to 330 pM. The medium of the ABCA1 reporter cell line seeded on day 1 is completely removed by aspiration and the diluted test substances are immediately added to the cells. The dilution and addition of the substances takes place with a pipetting robot (Beckman FX). The final volume of the test substances diluted in medium is 100 μl per well of a 96-well microtiter plate. The DMSO concentration in the test is less than 0.1% v/v in order to avoid cytotoxic effects of the solvent.
# The test plates are incubated in an incubator at 37° C. and 5% CO2 for 24 h.
# The ABCA1 reporter cells treated with the test substances are removed from the incubator and the medium is aspirated off. […]
row,Compound,EC50 [µM]
1,"CC(=O)c1ccc(N2CCN(C(=O)[C@@H]3CN(S(=O)(=O)c4cccs4)C[C@H]3c3ccccc3)CC2)cc1 (racemic) [Example 7, 1-(4-{4-[3,4-trans-4-Phenyl-1-(thiophene-2-sulfonyl)pyrrolidine-3-carbonyl]-piperazin-1-yl}phenyl)ethanone]",13.2
2,"COc1ccccc1N1CCN(C(=O)[C@@H]2CN(S(=O)(=O)c3cccs3)C[C@H]2c2ccccc2)CC1 (racemic) [Example 24, [4-(2-Methoxyphenyl)piperazin-1-yl]-[3,4-trans-4-phenyl-1-(thiophene-2-sulfonyl)pyrrolidin-3-yl]methanone]",15
3,"COc1ccccc1N1CCN(C(=O)[C@@H]2CN(S(=O)(=O)c3cc(Br)c(Br)s3)C[C@H]2c2ccccc2)CC1 (racemic) [Example 25, [1-(4,5-Dibromothiophene-2-sulfonyl)-3,4-trans-4-phenylpyrrolidin-3-yl]-[4-(2-methoxyphenyl)piperazin-1-yl]methanone]",3.81
4,"COc1ccccc1N1CCN(C(=O)[C@@H]2CN(S(=O)(=O)c3ccc(Cl)s3)C[C@H]2c2ccccc2)CC1 (racemic) [Example 26, [1-(5-Chlorothiophene-2-sulfonyl)-3,4-trans-4-phenylpyrrolidin-3-yl]-[4-(2-methoxyphenyl)piperazin-1-yl]methanone]",2.94
5,"COc1ccccc1N1CCN(C(=O)[C@@H]2CN(S(=O)(=O)c3cc(Cl)c(Cl)s3)C[C@H]2c2ccccc2)CC1 (racemic) [Example 27, [1-(4,5-Dichlorothiophene-2-sulfonyl)-3,4-trans-4-phenylpyrrolidin-3-yl]-[4-(2-methoxyphenyl)piperazin-1-yl]methanone]",6.99
6,"COc1ccccc1N1CCN(C(=O)[C@@H]2CN(S(=O)(=O)c3sc4ccc(Cl)cc4c3C)C[C@H]2c2ccccc2)CC1 (racemic) [Example 29, [1-(5-Chloro-3-methylbenzo[b]thiophene-2-sulfonyl)-3,4-trans-4-phenyl-pyrrolidin-3-yl]-[4-(2-methoxyphenyl)piperazin-1-yl]methanone]",5.61
7,"O=C([C@@H]1CN(S(=O)(=O)c2cccs2)C[C@H]1c1ccccc1)N1CCN(c2cccc(C(F)(F)F)c2)CC1 (racemic) [Example 30, [3,4-trans-4-Phenyl-1-(thiophene-2-sulfonyl)pyrrolidin-3-yl]-[4-(3-trifluoromethylphenyl)piperazin-1-yl]methanone]",3.22
8,"O=C([C@@H]1CN(S(=O)(=O)c2cc(Br)c(Br)s2)C[C@H]1c1ccccc1)N1CCN(c2cccc(C(F)(F)F)c2)CC1 (racemic) [Example 31, [1-(4,5-Dibromothiophene-2-sulfonyl)-3,4-trans-4-phenylpyrrolidin-3-yl]-[4-(3-trifluoromethylphenyl)piperazin-1-yl]methanone]",1.77
9,"O=C([C@@H]1CN(S(=O)(=O)c2ccc(Cl)s2)C[C@H]1c1ccccc1)N1CCN(c2cccc(C(F)(F)F)c2)CC1 (racemic) [Example 32, [1-(5-Chlorothiophene-2-sulfonyl)-3,4-trans-4-phenylpyrrolidin-3-yl]-[4-(3-trifluoromethylphenyl)piperazin-1-yl]methanone]",16.2
10,"O=C([C@@H]1CN(S(=O)(=O)c2cc(Cl)c(Cl)s2)C[C@H]1c1ccccc1)N1CCN(c2cccc(C(F)(F)F)c2)CC1 (racemic) [Example 33, [1-(4,5-Dichlorothiophene-2-sulfonyl)-3,4-trans-4-phenylpyrrolidin-3-yl]-[4-(3-trifluoromethylphenyl)piperazin-1-yl]methanone]",6.59
11,"Cc1ccc(N2CCN(C(=O)[C@@H]3CN(S(=O)(=O)c4cccs4)C[C@H]3c3ccccc3)CC2)c(C)c1 (racemic) [Example 36, [4-(2,4-Dimethylphenyl)piperazin-1-yl]-[3,4-trans-4-phenyl-1-(thiophene-2-sulfonyl)pyrrolidin-3-yl]methanone]",3.6
